Here are results for three compounds from patent publication US10787430B2, “Hemoglobin modifier compounds and uses thereof” (FronThera U.S. Pharmaceuticals LLC, priority 2016, dated 2020).

Series [1] is described as follows: Pharmacokinetic study in rats (plasma and red blood cell). Particulars: male, Sprague-Dawley, rat, oral, 7.2 mg/kg. It is filed as in vivo. Here is the method:
Rats (Sprague-Dawley, male, 220-280 g) were dosed with GBT-440 (HCl salt) and one of three compounds corresponding to Example 27, 29, and 38. The rats received oral (7.2 mpk) doses of the compound. Rats were fasted overnight before the experiments and provided with food four hours after dosing. The oral dosing formulations was prepared as follows: approximately 10 mg of compound was weighed precisely to an appropriate size of container, to which was added 2 mL of vehicle 0.5% methylcellulose in water and 8 μL 0.5% sodium dodecyl sulfate. The mixture was then transferred into a glass vial, and volume adjusted to appropriate volume with 0.5% methylcellulose to obtain a final concentration of 0.72 mg·mL^−1, and then vortexed and sonicated briefly.
Whole blood sample collection: Blood samples ([…]) were collected at pre-dose, 15, 30 min, 1, 2, 4, 8, 12 and 24 h via jugular vein into tubes and anticoagulated with 3.2% TSC (trisodium citrate). The proportion of anticoagulant and blood was 1:9 (v/v). The sampling time was recorded accordingly. The tubes were gently inverted several times to ensure mixing. Then 10 μL doses of whole blood sample was transferred to a new EP tube and duplicated in wet ice.
Plasma sample collection: The remaining whole blood was processed by centrifugation at 5,500 rpm for 10 min. The supernate was collected. All these whole blood and plasma samples were kept below −20° C. for 1 h prior to analysis.
Plasma sample preparation: An aliquot of 20 μL of sample was transferred to sample treatment tube (1.5 mL EP tube), and then 100 μL ACN (0.5% FA) containing Verapamil, 5 ng·mL^−1 and Glibenclamide, 50 ng·mL^−1 for protein precipitation was added. The mixture was vortexed for 30 min, and then centrifuged at 13000 rpm for 5 min at room temperature. After that, 70 μL of supernatant was transferred to a 96-Well Plate, to which 70 μL of water added and then vortexed for 10 min at room temperature. An aliquot of 10 μL of this mixture was analyzied using LC-MS/MS.
Whole blood sample preparation: An aliquot of 10 μL of sample was transferred to sample treatment tube (1.5 mL EP tube), and then 500 μL ACN (0.5% FA) containing Verapamil, 5 ng·mL^−1 and Glibenclamide, 50 ng·mL^−1 for protein precipitation was added. The mixture was vortexed for 30 min, and then centrifuged at 13000 rpm for 5 min at room temperature. After that, 70 μL of supernatant was transferred to a 96-Well Plate, to which 70 μL of water was added and then vortexed for 10 min at room temperature. An aliquot of 10 μL of this mixture was analyzed using LC-MS/MS.
Plasma and red blood cell concentration-time data were processed by linear regression analysis. All pharmacokinetic parameters were calculated using non-compartment model of Pharsight Phoenix 6.3.
Red blood cell concentrations were calculated according to the method below: Mass balance equation: Cb·VB=Cp·Vp+CBC·VBC Where, Cb=Concentration of whole blood; VB=Volume of whole blood; Cp=Concentration of plasma; Vp=Volume of plasma; CBC=Concentration of blood cell; VBC=Volume of blood cell. VBC=H·VB, where H is the hematocrit number. Vp=(1−H)·VB

Series [2] is described as follows: Solubility in JP1, JP2 and FaSSIF buffers. It is filed as physicochemical. To be noted: 25 °C, thermodynamic from solid, room temperature. Here is the method: Conditions: 1. JP1 buffer (84 mM HCl, 34.22 mM NaCl, pH 1.2); 2. JP2 buffer (50 mM phosphate buffer at pH 6.8); 3. FaSSIF buffer, pH 6.5 (Preparation: In about 0.9 L of purified water dissolve 0.420 g of NaOH (pellets), 4.470 g of NaH2PO4 (dihydrate), 6.186 g of NaCl; Adjust the pH to 6.5 with Sodium hydroxide 1N or Hydrochloric acid 1N, to make up to volume (1 L) with purified water at room temperature; Add 0.224 g of SIF Powder Original to about 0.5 L of pH 6.5 blank buffer and stir until powder is completely dissolved; Let stand for 2 hour. FaSSIF buffer is now ready to use.
Procedures: 1. accurately weighed about 2 mg test compounds and controls in whatman vials, then transferred 450 μL buffer in to the vials; 2. Filter pistons of miniuniprep vials were placed and compressed to the position of the liquid level to allow for contact. Vortexed for 2 minutes; 3. […] Miniunipreps were compressed to prepare the filtrates for injection into HPLC system; 5. Diluted the filtrates with buffer by a factor of 50 fold to make diluents; 6. Determined the test compound concentration of the diluents and filtrates using HPLC-UV.

The mark [3] stands for this setting: red blood cells, red blood cell (calculated by mass balance from whole blood and plasma), read-out: AUC0-24 h RBC.
Where [4] appears, read: red blood cells, red blood cell (calculated by mass balance from whole blood and plasma), read-out: Cmax RBC.
The mark [5] stands for this setting: red blood cells, red blood cell, read-out: T1/2 RBC (converted).
Setting [6] is: plasma, read-out: AUC0-24 h Plasma.
Setting [7] is: plasma, read-out: T1/2 Plasma (converted).
Setting [8] is: aqueous buffer, JP2 buffer (50 mM phosphate) pH 6.8, 24 hr, read-out: JP2 Solubility.
Setting [9] is: simulated gastric fluid, JP1 buffer pH 1.2, 24 hr, read-out: JP1 Solubility.
[10] abbreviates: FaSSIF buffer pH 6.5, 24 hr, read-out: FaSSIF Solubility.

Counter-ions that a name gives are not always drawn. Like-named read-outs stand apart in the source and are kept apart here.

Consider `Cl.[2H]C([2H])(Oc1cc(F)cc(O)c1C=O)c1cccnc1-c1ccnn1C(C)C` [Example 27, 4-fluoro-2-hydroxy-6-((2-(1-isopropyl-1H-pyrazol-5-yl)pyridin-3-yl)methoxy-d2)benzaldehyde hydrochloric acid], for which the AUC(0-t) in series [1] (setting [3]) was 566 µg·h/mL; in series [1] (setting [6]) it was 10.7 µg·h/mL. For the same compound, the highest concentration (Cmax) – broadly, the peak of the concentration-time curve – was 50.3 µg/mL in series [1] (setting [4]) and 0.742 µg/mL in series [1] (plasma, read-out: Cmax Plasma). Further, the half-life in series [1] (setting [5]) was 26 h; in series [1] (setting [7]) it was 18 h. Also, the solubility – broadly, how much of the substance goes into solution per volume – at 24 h in series [2] (setting [8]) was 8.16 µg/mL; in series [2] (setting [9]), 623 µg/mL; in series [2] (setting [10]) it was 35.7 µg/mL.
As to `Cl.[2H]C([2H])(Oc1cccc(O)c1C=O)c1cccnc1-n1ccnc1C(C)C` [Example 29, 2-hydroxy-6-((2-(2-isopropyl-1H-imidazol-1-yl)pyridin-3-yl)methoxy-d2)benzaldehyde hydrochloric acid], the AUC(0-t) in series [1] (setting [3]) is 12000 µg·h/mL; in series [1] (setting [6]), 42.6 µg·h/mL. Moreover, the Cmax in series [1] (setting [4]) is 1240 µg/mL; in series [1] (plasma, read-out: Cmax Plasma) it was 4.01 µg/mL. The half-life in series [1] (setting [5]) is 10 h; in series [1] (setting [7]), 12 h. Moreover, the solubility at 24 h is 74.4 µg/mL in series [2] (setting [8]), more than 4440 µg/mL in series [2] (setting [9]) and 591 µg/mL in series [2] (setting [10]).
For the compound `CC(C)n1nccc1-c1ncccc1COc1cccc(O)c1C=O` [GBT-440 (HCl salt), reference compound], the AUC(0-t) in series [1] (setting [3]) is 3440 µg·h/mL; in series [1] (setting [6]), 22.8 µg·h/mL. For the same compound, the Cmax in series [1] (setting [4]) was 216 µg/mL; in series [1] (plasma, read-out: Cmax Plasma) it was 2.15 µg/mL. Further, the half-life in series [1] (setting [5]) is 17 h; in series [1] (setting [7]) it was 19 h. The solubility at 24 h in series [2] (setting [8]) was 28 µg/mL; in series [2] (setting [9]), 986 µg/mL; in series [2] (setting [10]), 95.7 µg/mL.
